{
  "source": "paper PMC7010297",
  "about": "“How the initiating ribosome copes with ppGpp to translate mRNAs” (PLoS Biology, 2020)",
  "type_in_all_cases": "binding",
  "key": {"IF2-bound 30S IC": {"biological_target": "T1, IF2-bound 30S IC (Escherichia coli, UniProt P0A705)", "T1 construct": "6xHis (N); made in house", "T1 sequence (P0A705 whole entry, looked up)": "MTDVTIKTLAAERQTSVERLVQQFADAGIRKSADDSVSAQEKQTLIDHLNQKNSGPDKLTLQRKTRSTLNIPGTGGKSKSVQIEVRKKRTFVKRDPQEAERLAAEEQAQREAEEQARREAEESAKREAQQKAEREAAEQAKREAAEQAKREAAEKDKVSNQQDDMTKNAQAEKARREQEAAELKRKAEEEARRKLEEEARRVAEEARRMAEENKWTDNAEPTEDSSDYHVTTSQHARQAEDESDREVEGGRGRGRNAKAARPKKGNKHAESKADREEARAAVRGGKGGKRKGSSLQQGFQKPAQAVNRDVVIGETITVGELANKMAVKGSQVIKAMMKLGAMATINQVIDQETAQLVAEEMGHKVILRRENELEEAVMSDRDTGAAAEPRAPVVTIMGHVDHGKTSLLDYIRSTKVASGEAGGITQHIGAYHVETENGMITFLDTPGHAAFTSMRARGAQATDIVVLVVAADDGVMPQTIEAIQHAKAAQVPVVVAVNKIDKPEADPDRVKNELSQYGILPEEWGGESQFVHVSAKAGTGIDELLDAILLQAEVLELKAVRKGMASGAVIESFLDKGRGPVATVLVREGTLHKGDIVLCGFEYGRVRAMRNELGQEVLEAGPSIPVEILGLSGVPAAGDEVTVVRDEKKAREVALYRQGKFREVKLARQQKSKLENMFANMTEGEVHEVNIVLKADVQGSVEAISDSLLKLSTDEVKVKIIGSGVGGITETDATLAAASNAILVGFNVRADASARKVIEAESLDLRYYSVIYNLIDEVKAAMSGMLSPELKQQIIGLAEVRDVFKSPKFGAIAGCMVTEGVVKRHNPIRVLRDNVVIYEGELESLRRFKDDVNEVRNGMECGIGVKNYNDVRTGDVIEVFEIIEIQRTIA", "experiment": "30S IC formation by MST, guanosine nucleotide titration;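 as to MST Average: lower thermophoresis signal means Bpy-tRNAi dissociation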;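 as to MST Replicates (a.u.): lower thermophoresis signal means Bpy-tRNAi dissociation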", "text": "(§1) To monitor the interaction of initiator tRNA and 30S ribosomal subunits, we used Microscale Thermophoresis (MST) with a fluorescently labelled initiator tRNA (Bpy-tRNAi) (Fig 1B). MST allows to measure fluorescence in a constrained space. Changes on the readout derive from molecular drifts resulting from small thermal equilibrium perturbations. Upon equilibrium perturbations, the patterns of Bpy-tRNAi migration away from the observation space are related to bound and unbound states (Fig 1B). […] On the contrary, a decrease in thermophoresis indicated the dissociation of Bpy-tRNAi. The relation between fluorescence measured at both equilibriums (Ff to Fi, after and prior to the perturbation, respectively) as a function of ligand concentration allowed to determine dissociation constants of the interaction (Fig 1C).\n(§2) Continuous lines indicate nonlinear regression fittings with a quadratic equation. Three measurements were performed; mean and standard deviation are plotted (S1 Data). (B) as (A) to measure the concentration dependence for each tested guanosine nucleotide at constant IF2 (1 μM). […] Continuous lines show best fits using exponential functions. (D) Formation of 70S IC as measured by Bpy-tRNAi accommodation in the P site of the ribosome; 0.1 μM 30S ICs were formed with Bpy-tRNAi and rapidly mixed with 0.3 μM 50S subunits on a stopped-flow apparatus as described in [14]. Colors are as in (C). Continuous lines show best fits using an exponential function for a single reaction step. Each stopped-flow trace results from the mean of 5 to 7 replicates.\nMST was calculated from the respective fluorescence time dependencies (S3 Fig). […] Symbols as in (B). […] Continuous lines indicate nonlinear regression fittings with quadratic (B and E) or same-site competition (G) functions. Three measurements were performed; mean and standard deviations are plotted (S1 Data)."}, "[1]": {"biological_target": "T2, 30S IC (30S-bound IF2, Bpy-tRNAi) (Escherichia coli, UniProt P0A705)", "T2 construct": "6xHis (N); made in house", "T2 sequence (P0A705 whole entry, looked up)": "as above", "experiment": "30S IC formation measured by MST at increasing concentrations of IF2 with guanosine nucleotides", "conditions": "Fig 2A", "text": "as §1, §2"}, "IF2": {"biological_target": "T3, IF2 (Escherichia coli, UniProt P0A705)", "T3 construct": "6xHis (N); made in house", "T3 sequence (P0A705 whole entry)": "as the sequence (P0A705 whole entry, looked up) above", "experiment": "IF2-Bpy-tRNAi-GNP ternary complex formation by MST", "conditions": "S2A Fig", "experimental": "Supplementary file pbio.3000593.s002.pdf: S2 Fig IF2-Bpy-tRNAi complex formation as a function of guanosine nucleotides. (A) IF2 concentration dependencies for Bpy-tRNAi binding in the presence of 0.5 mM of the indicated guanosine nucleotides to build IF2-tRNA-GNP ternary complexes (TCs). […] Three to five measurements were performed; mean and standard deviation are plotted (S1 Data). […] (PDF) Click here for additional data file."}},
  "note": "Values joined by “and” are separate entries in the source; they are usually repeats but may differ in a detail not shown here. Equal values may be shown once.",
  "data": [
    {"smiles": "Nc1nc2c(ncn2[C@@H]2O[C@H](COP(=O)(O)OP(=O)(O)OP(=O)(O)O)[C@@H](O)[C@H]2O)c(=O)[nH]1", "note": "[GTP, guanosine triphosphate]", "values": [
      {"measurement": "MST Average", "setting": "IF2-bound 30S IC; mMF1, GTP 0.244 μM", "value": 971.65, "unit": "a.u."},
      {"measurement": "MST Replicates (a.u.)", "setting": "IF2-bound 30S IC; mMF1, GTP 0.244 μM", "value": 968.94, "unit": "a.u."},
      {"measurement": "MST Average", "setting": "IF2-bound 30S IC; mMF1, GTP 1.953 μM", "value": 1013.90, "unit": "a.u."},
      {"measurement": "MST Average", "setting": "IF2-bound 30S IC; mMF1, GTP 3.906 μM", "value": 1027.63, "unit": "a.u."},
      {"measurement": "MST Replicates (a.u.)", "setting": "IF2-bound 30S IC; mMF1, GTP 3.906 μM", "value": "1022.88 a.u. and 1029.90 a.u. and 1030.12 a.u."},
      {"measurement": "MST Average", "setting": "IF2-bound 30S IC; mMF1, GTP 7.812 μM", "value": 1034.32, "unit": "a.u."},
      {"measurement": "MST Replicates (a.u.)", "setting": "IF2-bound 30S IC; mMF1, GTP 7.812 μM", "value": "1030.42 a.u. and 1036.20 a.u. and 1036.34 a.u."},
      {"measurement": "MST Average", "setting": "IF2-bound 30S IC; mMF1, GTP 15.625 μM", "value": 1039.20, "unit": "a.u."},
      {"measurement": "MST Replicates (a.u.)", "setting": "IF2-bound 30S IC; mMF1, GTP 15.625 μM", "value": "1035.40 a.u. and 1041.45 a.u. and 1040.76 a.u."},
      {"measurement": "MST Average", "setting": "IF2-bound 30S IC; mMF1, GTP 31.25 μM", "value": 1035.42, "unit": "a.u."},
      {"measurement": "MST Replicates (a.u.)", "setting": "IF2-bound 30S IC; mMF1, GTP 31.25 μM", "value": "1032.74 a.u. and 1036.98 a.u. and 1036.55 a.u."},
      {"measurement": "KD of GTP with mTufA lower than with mMF1", "setting": "IF2-bound 30S IC; mTufA vs mMF1", "value": "about 2 fold"},
      {"measurement": "MST Average", "setting": "IF2-bound 30S IC; mTufA, GTP 0.244 μM", "value": 1017.37, "unit": "a.u."},
      {"measurement": "MST Average", "setting": "IF2-bound 30S IC; mTufA, GTP 1.953 μM", "value": 1082.32, "unit": "a.u."},
      {"measurement": "MST Average", "setting": "IF2-bound 30S IC; mTufA, GTP 3.906 μM", "value": 1097.99, "unit": "a.u."},
      {"measurement": "MST Replicates (a.u.)", "setting": "IF2-bound 30S IC; mTufA, GTP 3.906 μM", "value": "1095.97 a.u. and 1098.36 a.u. and 1099.66 a.u."},
      {"measurement": "MST Average", "setting": "IF2-bound 30S IC; mTufA, GTP 7.812 μM", "value": 1113.91, "unit": "a.u."},
      {"measurement": "MST Replicates (a.u.)", "setting": "IF2-bound 30S IC; mTufA, GTP 7.812 μM", "value": "1111.40 a.u. and 1114.56 a.u. and 1115.76 a.u."},
      {"measurement": "MST Average", "setting": "IF2-bound 30S IC; mTufA, GTP 15.625 μM", "value": 1117.61, "unit": "a.u."},
      {"measurement": "MST Replicates (a.u.)", "setting": "IF2-bound 30S IC; mTufA, GTP 15.625 μM", "value": "1116.26 a.u. and 1117.65 a.u. and 1118.92 a.u."},
      {"measurement": "MST Average", "setting": "IF2-bound 30S IC; mTufA, GTP 31.25 μM", "value": 1112.61, "unit": "a.u."},
      {"measurement": "MST Replicates (a.u.)", "setting": "IF2-bound 30S IC; mTufA, GTP 31.25 μM", "value": "1112.94 a.u. and 1112.01 a.u. and 1112.88 a.u."},
      {"measurement": "Kd", "setting": "IF2-bound 30S IC; nucleotide titration at constant IF2 (1 μM), read-out: KD for the IF2-bound 30S IC", "value": "500 ± 100", "unit": "nM"},
      {"measurement": "MST Average", "setting": "[1]; IF2 0.16 µM", "value": 1029.29, "unit": "a.u."},
      {"measurement": "MST Average", "setting": "[1]; IF2 0.31 µM", "value": 1076.43, "unit": "a.u."},
      {"measurement": "MST Average", "setting": "[1]; IF2 0.63 µM", "value": 1093.32, "unit": "a.u."},
      {"measurement": "MST Average", "setting": "[1]; IF2 1.25 µM", "value": 1094.97, "unit": "a.u."},
      {"measurement": "MST Average", "setting": "[1]; IF2 2.50 µM", "value": 1077.58, "unit": "a.u."},
      {"measurement": "MST Average", "setting": "[1]; IF2 5.00 µM", "value": 1077.76, "unit": "a.u."},
      {"measurement": "MST Average", "setting": "IF2; IF2 0.08 µM", "value": 945.53, "unit": "a.u."},
      {"measurement": "MST Replicates", "setting": "IF2; IF2 0.08 µM", "value": "952.20 a.u. and 948.28 a.u. and 936.11 a.u."},
      {"measurement": "MST Average", "setting": "IF2; IF2 0.16 µM", "value": 947.39, "unit": "a.u."},
      {"measurement": "MST Replicates", "setting": "IF2; IF2 0.16 µM", "value": "938.55 a.u. and 949.51 a.u. and 954.10 a.u."},
      {"measurement": "MST Average", "setting": "IF2; IF2 0.31 µM", "value": 948.97, "unit": "a.u."},
      {"measurement": "MST Replicates", "setting": "IF2; IF2 0.31 µM", "value": "951.38 a.u. and 955.20 a.u. and 940.31 a.u."},
      {"measurement": "MST Average", "setting": "IF2; IF2 0.63 µM", "value": 950.03, "unit": "a.u."},
      {"measurement": "MST Replicates", "setting": "IF2; IF2 0.63 µM", "value": "955.50 a.u. and 952.44 a.u. and 942.15 a.u."},
      {"measurement": "MST Average", "setting": "IF2; IF2 2.50 µM", "value": 955.81, "unit": "a.u."},
      {"measurement": "MST Replicates", "setting": "IF2; IF2 2.50 µM", "value": "960.19 a.u. and 957.37 a.u. and 949.88 a.u."},
      {"measurement": "MST Average", "setting": "IF2; IF2 5.00 µM", "value": 963.92, "unit": "a.u."},
      {"measurement": "MST Replicates", "setting": "IF2; IF2 5.00 µM", "value": "963.66 a.u. and 965.85 a.u. and 962.23 a.u."},
      {"measurement": "MST Average", "setting": "IF2; IF2 10.00 µM", "value": 973.12, "unit": "a.u."},
      {"measurement": "MST Replicates", "setting": "IF2; IF2 10.00 µM", "value": "974.68 a.u. and 972.27 a.u. and 972.40 a.u."},
      {"measurement": "MST Average", "setting": "IF2; IF2 20.00 µM", "value": 982.93, "unit": "a.u."},
      {"measurement": "MST Replicates", "setting": "IF2; IF2 20.00 µM", "value": "983.50 a.u. and 982.36 a.u."},
      {"measurement": "MST Average", "setting": "IF2; IF2 40.00 µM", "value": 989.70, "unit": "a.u."},
      {"measurement": "MST Replicates", "setting": "IF2; IF2 40.00 µM", "value": "993.21 a.u. and 991.95 a.u. and 983.94 a.u."}
    ]}
  ]
}
